# Values of other authors, collected in patent US20100068203A1, “17-Oxymacbecin Derivatives and Their Use in the Treatment of Cancer and/or B-Cell Malignancies” (priority 2006, published 2010).
# Assays:
# Hsp90 = Hsp90 (Homo sapiens, UniProt P07900)
# SKBr3 = details: compared with geldanamycin and 17-AAG
# bacteria and fungi = details: in vitro
# [1] = biological target: terminal deoxynucleotidyl transferase (Homo sapiens, UniProt P04053)
# Sequence of terminal deoxynucleotidyl transferase (P04053 whole entry, species assumed): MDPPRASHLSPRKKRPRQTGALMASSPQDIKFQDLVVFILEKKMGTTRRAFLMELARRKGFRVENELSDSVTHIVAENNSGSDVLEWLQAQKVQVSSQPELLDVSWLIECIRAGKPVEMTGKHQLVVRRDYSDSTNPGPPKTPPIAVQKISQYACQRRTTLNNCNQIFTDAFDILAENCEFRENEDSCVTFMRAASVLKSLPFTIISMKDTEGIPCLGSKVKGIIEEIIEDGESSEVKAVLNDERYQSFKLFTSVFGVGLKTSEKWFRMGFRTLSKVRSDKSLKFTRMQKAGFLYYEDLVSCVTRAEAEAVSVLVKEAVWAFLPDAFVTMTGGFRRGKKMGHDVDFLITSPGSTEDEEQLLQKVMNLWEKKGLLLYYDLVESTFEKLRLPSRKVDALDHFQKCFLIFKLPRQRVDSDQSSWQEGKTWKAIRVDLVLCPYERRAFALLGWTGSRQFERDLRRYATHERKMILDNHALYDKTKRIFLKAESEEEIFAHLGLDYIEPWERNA
smiles,measurement,setting,value
CO[C@H]1C[C@H](C)Cc2cc(O)cc(c2)NC(=O)/C=C/CC[C@H](OC)[C@@H](OC(N)=O)/C(C)=C/[C@H](C)[C@H]1O [KOSN1559],"binding affinity to Hsp90, greater than 17-AAG",Hsp90; relative to 17-AAG,8 fold
same,"binding affinity to Hsp90, greater than geldanamycin",Hsp90; relative to geldanamycin,4 fold
same,IC50 measurement using SKBr3,SKBr3,not reflected in an improvement
COC1=C2C[C@@H](C)C[C@H](OC)[C@H](O)[C@@H](C)/C=C(\C)[C@H](OC(N)=O)[C@@H](OC)/C=C\C=C(/C)C(=O)NC(=CC1=O)C2=O [geldanamycin],activity in vitro against protozoa,protozoa,strong activity
same,activity against bacteria and fungi,bacteria and fungi,weak activity
CO[C@H]1[C@@H](OC)C[C@H](C)[C@@H](OC)C2=CC(=O)C=C(NC(=O)/C(C)=C/C=C\[C@H](C)[C@@H](OC(N)=O)/C(C)=C/[C@@H]1C)C2=O [macbecin],Reverse transcriptase activity inhibition,Reverse transcriptase,not inhibited
same,terminal deoxynucleotidyl transferase activity inhibition,[1],not inhibited
